In assay [1] the test system is HIV-1 NL4-3 gag A364V virus. Briefly: microbe, parasite or virus in culture. In kind it is cell-based. The method in brief: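 Recombinant NL4-3 reporter virus with Renilla luciferase replacing part of nef, made by transfection of 293T cells. MT-2 cells infected for 4-5 days with serial inhibitor dilutions; antiviral activity quantified by luciferase activity.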
Assay [2] has as its system WT (wild-type HIV virus; recombinant NL4-3 virus). Briefly: microbe, parasite or virus in culture. In kind it is cell-based, HIV-1. The gist of the method: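 MT-2 cells infected 4-5 days with NL4-3 carrying Renilla luciferase in place of part of nef (Gag P373S), virus made by 293T transfection, with serial inhibitor dilutions. Antiviral activity read as luciferase activity by a modified dual-luciferase read-out.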

Where [3] appears, read: Human immunodeficiency virus 1, NL43, MT2, read-out: A364V (EC50, uM), Table 1 regular screen, class symbol.
Setting [4] is: Human immunodeficiency virus 1, NL43, MT2, read-out: WT (EC50, uM), Table 1 regular screen, class symbol.
[5] abbreviates: Human immunodeficiency virus 1, NL43, MT2, read-out: A364V (EC50, uM), Table 1 regular screen, MT-2 cells, luciferase readout.
Setting [6] is: Human immunodeficiency virus 1, NL43, MT2, read-out: WT (EC50, uM), Table 1 regular screen, MT-2 cells, luciferase readout.

Like-named read-outs stand apart in the source and are kept apart here.

What is called EC50 is the concentration giving half of the maximal effect. `C=C(C)[C@@H]1CC[C@]2(NCCN3CCS(=O)(=O)CC(C)C3)CC[C@]3(C)[C@H](CC[C@@H]4[C@@]5(C)CC=C(C6=CC[C@@](CF)(C(=O)O)CC6)C(C)(C)[C@@H]5CC[C@]43C)[C@@H]12` (stereo partly drawn) [Example 26, (1R)-1-(fluoromethyl)-4-((1R,3aS,5aR,5bR,7aR,11aS,11bR,13aR,13bR)-5a,5b,8,8,11a-pentamethyl-3a-((2-(6-methyl-1,1-dioxido-1,4-thiazepan-4-yl)ethyl)amino)-1-(prop-1-en-2-yl)-2,3,3a,4,5,5a,5b,6,7,7a,8,11,11a,11b,12,13,13a,13b-octadecahydro-1H-cyclopenta[a]chrysen-9-yl)cyclohex-3-enecarboxylic acid]: the EC50 in assay [1] (setting [3]) was over 0.05 µM; in assay [2] (setting [4]), under 0.05 µM.

For the compound `C=C(C)[C@@H]1CC[C@]2(NCCN3CCS(=O)(=O)CC(C)C3)CC[C@]3(C)[C@H](CC[C@@H]4[C@@]5(C)CC=C(C6=CC[C@](CF)(C(=O)O)CC6)C(C)(C)[C@@H]5CC[C@]43C)[C@@H]12` (stereo partly drawn) [Example 27, (1S)-1-(fluoromethyl)-4-((1R,3aS,5aR,5bR,7aR,11aS,11bR,13aR,13bR)-5a,5b,8,8,11a-pentamethyl-3a-((2-(6-methyl-1,1-dioxido-1,4-thiazepan-4-yl)ethyl)amino)-1-(prop-1-en-2-yl)-2,3,3a,4,5,5a,5b,6,7,7a,8,11,11a,11b,12,13,13a,13b-octadecahydro-1H-cyclopenta[a]chrysen-9-yl)cyclohex-3-enecarboxylic acid], the EC50 was over 0.05 µM in assay [1] (setting [3]) and under 0.05 µM in assay [2] (setting [4]).

As to `C=C(C)[C@@H]1CC[C@]2(NCC(=O)O)CC[C@]3(C)[C@H](CC[C@@H]4[C@@]5(C)CC=C(C6=CC[C@](CF)(C(=O)O)CC6)C(C)(C)[C@@H]5CC[C@]43C)[C@@H]12` [Example 28, (S)-4-((1R,3aS,5aR,5bR,7aR,11aS,11bR,13aR,13bR)-3a-((carboxymethyl)amino)-5a,5b, 8,8,11a-pentamethyl-1-(prop-1-en-2-yl)-2,3,3a,4,5,5a,5b,6,7,7a,8,11,11a,11b,12,13,13a,13b-octadecahydro-1H-cyclopenta[a]chrysen-9-yl)-1-(fluoromethyl)cyclohex-3-enecarboxylic acid], the EC50 in assay [1] (setting [3]) and in assay [2] (setting [4]) was over 0.05 µM throughout.

Regarding `C=C(C)[C@@H]1CC[C@]2(NCC(=O)N3CCS(=O)(=O)CC3)CC[C@]3(C)[C@H](CC[C@@H]4[C@@]5(C)CC=C(C6=CC[C@](CF)(C(=O)O)CC6)C(C)(C)[C@@H]5CC[C@]43C)[C@@H]12` [Example 29, (S)-4-((1R,3aS,5aR,5bR,7aR,11aS,11bR,13aR,13bR)-3a-((2-(1,1-dioxidothiomorpholino)-2-oxoethyl)amino)-5a,5b,8,8,11a-pentamethyl-1-(prop-1-en-2-yl)-2,3,3a,4,5,5a,5b,6,7,7a,8,11,11a,11b,12,13,13a,13b-octadecahydro-1H-cyclopenta[a]chrysen-9-yl)-1-(fluoromethyl)cyclohex-3-enecarboxylic acid], the results for the EC50 in assay [1] (setting [3]) and in assay [2] (setting [4]) were over 0.05 µM and under 0.05 µM, respectively.

As for `C=C(C)[C@@H]1CC[C@]2(NCC(=O)N3CCC(C)(O)CC3)CC[C@]3(C)[C@H](CC[C@@H]4[C@@]5(C)CC=C(C6=CC[C@](CF)(C(=O)O)CC6)C(C)(C)[C@@H]5CC[C@]43C)[C@@H]12` [Example 30, (S)-1-(fluoromethyl)-4-((1R,3aS,5aR,5bR,7aR,11aS,11bR,13aR,13bR)-3a-((2-(4-hydroxy-4-methylpiperidin-1-yl)-2-oxoethyl)amino)-5a,5b,8,8,11a-pentamethyl-1-(prop-1-en-2-yl)-2,3,3a,4,5,5a,5b,6,7,7a,8,11,11a,11b,12,13,13a,13b-octadecahydro-1H-cyclopenta[a]chrysen-9-yl)cyclohex-3-enecarboxylic acid], the EC50 was found to be 0.551 µM in assay [1] (setting [5]) and 0.00298 µM in assay [2] (setting [6]).

For the compound `C=C(C)[C@@H]1CC[C@]2(NCC(=O)N3CCC(S(C)(=O)=O)CC3)CC[C@]3(C)[C@H](CC[C@@H]4[C@@]5(C)CC=C(C6=CC[C@](CF)(C(=O)O)CC6)C(C)(C)[C@@H]5CC[C@]43C)[C@@H]12` [Example 31, (S)-1-(fluoromethyl)-4-((1R,3aS,5aR,5bR,7aR,11aS,11bR,13aR,13bR)-5a,5b, 8,8,11a-pentamethyl-3a-((2-(4-(methylsulfonyl)piperidin-1-yl)-2-oxoethyl)amino)-1-(prop-1-en-2-yl)-2,3,3a,4,5,5a,5b,6,7,7a,8,11,11a,11b,12,13,13a,13b-octadecahydro-1H-cyclopenta[a]chrysen-9-yl)cyclohex-3-enecarboxylic acid], the figures for the EC50 in assay [1] (setting [3]) and in assay [2] (setting [4]) were over 0.05 µM and under 0.05 µM, respectively.

Turning to `C=C(C)[C@@H]1CC[C@]2(NCC(=O)N3CCOCC3)CC[C@]3(C)[C@H](CC[C@@H]4[C@@]5(C)CC=C(C6=CC[C@](CF)(C(=O)O)CC6)C(C)(C)[C@@H]5CC[C@]43C)[C@@H]12` [Example 32, (S)-1-(fluoromethyl)-4-((1R,3aS,5aR,5bR,7aR,11aS,11bR,13aR,13bR)-5a,5b, 8,8,11a-pentamethyl-3a-((2-morpholino-2-oxoethyl)amino)-1-(prop-1-en-2-yl)-2,3,3a,4,5,5a,5b,6,7,7a,8,11,11a,11b,12,13,13a,13b-octadecahydro-1H-cyclopenta[a]chrysen-9-yl)cyclohex-3-enecarboxylic acid], the EC50 was over 0.05 µM in assay [1] (setting [3]) and under 0.05 µM in assay [2] (setting [4]).

As for `C=C(C)[C@@H]1CC[C@]2(NCC(=O)N3CCN(S(C)(=O)=O)CC3)CC[C@]3(C)[C@H](CC[C@@H]4[C@@]5(C)CC=C(C6=CC[C@](CF)(C(=O)O)CC6)C(C)(C)[C@@H]5CC[C@]43C)[C@@H]12` [Example 33, (S)-1-(fluoromethyl)-4-((1R,3aS,5aR,5bR,7aR,11aS,11bR,13aR,13bR)-5a,5b,8,8,11a-pentamethyl-3a-((2-(4-(methylsulfonyl)piperazin-1-yl)-2-oxoethyl)amino)-1-(prop-1-en-2-yl)-2,3,3a,4,5,5a,5b,6,7,7a,8,11,11a,11b,12,13,13a,13b-octadecahydro-1H-cyclopenta[a]chrysen-9-yl)cyclohex-3-enecarboxylic acid], the values for the EC50 in assay [1] (setting [3]) and in assay [2] (setting [4]) were over 0.05 µM and under 0.05 µM, respectively.

Turning to `C=C(C)[C@@H]1CC[C@]2(NCC(=O)N3CCCS(=O)(=O)CC3)CC[C@]3(C)[C@H](CC[C@@H]4[C@@]5(C)CC=C(C6=CC[C@](CF)(C(=O)O)CC6)C(C)(C)[C@@H]5CC[C@]43C)[C@@H]12` [Example 34, (S)-4-((1R,3aS,5aR,5bR,7aR,11aS,11bR,13aR,13bR)-3a-((2-(1,1-dioxido-1,4-thiazepan-4-yl)-2-oxoethyl)amino)-5a,5b, 8,8,11a-pentamethyl-1-(prop-1-en-2-yl)-2,3,3a,4,5,5a,5b,6,7,7a,8,11,11a,11b,12,13,13a,13b-octadecahydro-1H-cyclopenta[a]chrysen-9-yl)-1-(fluoromethyl)cyclohex-3-enecarboxylic acid], the EC50 in assay [1] (setting [3]) and in assay [2] (setting [4]) was under 0.05 µM in each case.

As for `C=C(C)[C@@H]1CC[C@]2(NCC(=O)N3CCS(=O)(=O)C3)CC[C@]3(C)[C@H](CC[C@@H]4[C@@]5(C)CC=C(C6=CC[C@](CF)(C(=O)O)CC6)C(C)(C)[C@@H]5CC[C@]43C)[C@@H]12` [Example 35, (S)-4-((1R,3aS,5aR,5bR,7aR,11aS,11bR,13aR,13bR)-3a-((2-(1,1-dioxidothiazolidin-3-yl)-2-oxoethyl)amino)-5a,5b,8,8,11a-pentamethyl-1-(prop-1-en-2-yl)-2,3,3a,4,5,5a,5b,6,7,7a,8,11,11a,11b,12,13,13a,13b-octadecahydro-1H-cyclopenta[a]chrysen-9-yl)-1-(fluoromethyl)cyclohex-3-enecarboxylic acid], the EC50 in assay [1] (setting [5]) amounted to 0.157 µM; in assay [2] (setting [6]), 0.00157 µM.

With `C=C(C)[C@@H]1CC[C@]2(NCC(=O)N3CCC(S(C)(=O)=O)C3)CC[C@]3(C)[C@H](CC[C@@H]4[C@@]5(C)CC=C(C6=CC[C@](CF)(C(=O)O)CC6)C(C)(C)[C@@H]5CC[C@]43C)[C@@H]12` (stereo partly drawn) [Example 36, (1S)-1-(fluoromethyl)-4-((1R,3aS,5aR,5bR,7aR,11aS,11bR,13aR,13bR)-5a,5b, 8,8,11a-pentamethyl-3a-((2-(3-(methylsulfonyl)pyrrolidin-1-yl)-2-oxoethyl)amino)-1-(prop-1-en-2-yl)-2,3,3a,4,5,5a,5b,6,7,7a,8,11,11a,11b,12,13,13a,13b-octadecahydro-1H-cyclopenta[a]chrysen-9-yl)cyclohex-3-enecarboxylic acid], the 50% effective concentration (EC50) in assay [1] (setting [3]) was over 0.05 µM; in assay [2] (setting [4]), under 0.05 µM.

On to `C=C(C)[C@@H]1CC[C@]2(NCC(=O)N3C[C@@H]4C[C@H]3CS4(=O)=O)CC[C@]3(C)[C@H](CC[C@@H]4[C@@]5(C)CC=C(C6=CC[C@](CF)(C(=O)O)CC6)C(C)(C)[C@@H]5CC[C@]43C)[C@@H]12` [Example 37, (S)-4-((1R,3aS,5aR,5bR,7aR,11aS,11bR,13aR,13bR)-3a-((2-((1S,4S)-2,2-dioxido-2-thia-5-azabicyclo[2.2.1]heptan-5-yl)-2-oxoethyl)amino)-5a,5b,8,8,11a-pentamethyl-1-(prop-1-en-2-yl)-2,3,3a,4,5,5a,5b,6,7,7a,8,11,11a,11 b,12,13,13a,13b-octadecahydro-1H-cyclopenta[a]chrysen-9-yl)-1-(fluoromethyl)cyclohex-3-enecarboxylic acid], for which the EC50 is over 0.05 µM in assay [1] (setting [3]) and under 0.05 µM in assay [2] (setting [4]).
